Data: US20260001928A1 (CORTERIA PHARMACEUTICALS, priority 2022, published 2026)
*1 amine or outer side, *2 acyl side, *3 side chain or, on linkers, in order; H or OH if unused. Where a SMILES comes first, the peptide text is derived from it. Side-chain parts run from the residue outwards. [ ]: non-standard residue; d: D form. The star is where a group is joined. C18 diacid = O=C(O)CCCCCCCCCCCCCCCCC(=O)*; C16 diacid = O=C(O)CCCCCCCCCCCCCCC(=O)*; γGlu = O=C(O)[C@H](CCC(=O)[*:2])N[*:1]; Abu = CC[C@H](N)C(=O)O; Pentanoyl = CCCCC(=O)*; AEEA = NCCOCCOCC(=O)O; Aib = CC(C)(N)C(=O)O

Experiments:
[1] = Chemical stability in buffer (pH 7.4 / pH 4.5), % purity loss; assay type: physicochemical; settings: 40° C. vs 5° C., 14 or 28 days; for Buffer stability pH 4.5 % purity loss: 100 mM acetate buffer pH 4.5; for Buffer stability pH 7.4 % purity loss: 100 mM phosphate buffer pH 7.4
Protocol: Solubility and chemical stability were studied in 100 mM phosphate buffer (pH 7.4) and 100 mM acetate buffer (pH 4.5). Test compound powders were dissolved in both buffers at a target concentration of 10 mg/mL and incubated for 1 hour at room temperature. After centrifugation at 2500 rcf for 15 minutes, 10 μL of supernatant was diluted with 190 μL of the incubation buffer and analyzed by LC-UV (Acquity UPLC-DAD, Waters). Solubility was calculated by comparing the peak area of the test compound in the buffer sample with the peak area of the same compound dissolved at 0.5 mg/mL in water:acetonitrile 1:1, 0.1% formic acid.
From the centrifuged supernatant, two additional 80 μL aliquots were collected and diluted with 160 μL of incubation buffer. One aliquot was stored at 5° C., while the other was stored at 40° C. After 14 or 28 days, the samples were analyzed by LC-UV. Chemical stability was calculated as % loss using the following equations: […]

[2] = target: T1, CFR1R receptor (Homo sapiens, UniProt P34998); test: Activity at anti-target CFR1R receptor, cAMP assay in CRF1R-overexpression CHO-K1 cells; assay type: cell-based; settings: 100% = Sauvagine at 100 nM; for EC50: cAMP
T1 construct: host or cells: CHO-K1 (clone 2)
T1 sequence (P34998 24-415): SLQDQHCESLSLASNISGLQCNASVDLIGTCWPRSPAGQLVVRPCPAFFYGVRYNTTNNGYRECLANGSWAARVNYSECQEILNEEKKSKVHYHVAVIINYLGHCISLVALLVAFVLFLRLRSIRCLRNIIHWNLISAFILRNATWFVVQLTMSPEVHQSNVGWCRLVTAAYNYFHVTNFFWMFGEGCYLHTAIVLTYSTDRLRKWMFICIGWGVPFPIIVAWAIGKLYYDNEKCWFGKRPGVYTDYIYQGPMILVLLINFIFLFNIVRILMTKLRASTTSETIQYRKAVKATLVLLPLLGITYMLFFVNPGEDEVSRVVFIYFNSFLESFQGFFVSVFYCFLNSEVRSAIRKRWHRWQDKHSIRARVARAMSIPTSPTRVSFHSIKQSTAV
How it was run: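 Grow clone 2 to near confluence at 37° C. under 5% CO2 in F12 (Hams) with 10% FBS and G418, harvest, and freeze in 10% DMSO. Thaw and plate at 4000 cells/well. Then proceed per the TeloHAEC method, normalising to Sauvagine 100 nM as maximum.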

[3] = target: T2, human CRF2a receptor (Homo sapiens, UniProt Q13324); test: Activity at human CRF2a receptor, cAMP functional assay in TeloHEAC cells; assay type: cell-based; settings: TeloHEAC cells stably expressing human CRF2a receptor, relative to urocortin 2 (100 nM = 100%)
T2 construct: expressed in transfected cells; host or cells: TeloHEAC cells
T2 sequence (Q13324 1-411): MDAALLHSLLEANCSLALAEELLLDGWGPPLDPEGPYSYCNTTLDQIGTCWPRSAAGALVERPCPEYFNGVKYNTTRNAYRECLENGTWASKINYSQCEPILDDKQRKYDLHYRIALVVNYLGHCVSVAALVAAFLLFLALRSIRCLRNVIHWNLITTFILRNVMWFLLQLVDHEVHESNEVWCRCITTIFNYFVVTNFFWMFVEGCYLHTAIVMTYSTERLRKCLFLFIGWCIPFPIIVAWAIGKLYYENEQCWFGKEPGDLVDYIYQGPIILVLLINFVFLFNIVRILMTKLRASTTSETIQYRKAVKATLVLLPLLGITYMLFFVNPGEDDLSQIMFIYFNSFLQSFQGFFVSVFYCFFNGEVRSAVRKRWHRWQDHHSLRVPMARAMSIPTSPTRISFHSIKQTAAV
How it was run: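 TeloHEAC cells stably expressing human CRF2a (10000 cells/well, suspended in HBSS/20 mM HEPES with 2 mM IBMX) were exposed to compounds for 30 min at 37 °C. cAMP was read as the 665/620 nm fluorescence ratio after 1 h at room temperature. EC50 was derived relative to 100 nM urocortin 2, set as 100%.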

[4] = test system: Sprague Dawley rats; test: Effect on systolic blood pressure, telemetry in Sprague Dawley rats; assay type: in vivo, rat; settings: 0.1 mg/kg SC
Protocol: The effect of the compounds on systolic blood pressure was determined in telemetry studies in Sprague Dawley rats at a dosage of 0.1 mg/kg SC.
The rats were previously implanted with a telemetry device (DSI, Saint-Paul, USA, HD-S10, HD-S11 or HD S21) and allowed to recover for a minimum period of 2 weeks before treatment with vehicle or the different peptides. Blood pressure (BP) was recorded through a catheter inserted into the abdominal aorta. The device body was placed in the abdomen. The animals were allowed to recover from surgery for at least 10 days before the first administration of test drug or vehicle.
The chronically instrumented rats of the telemetry studies were individually housed immediately after surgery and then housed in pairs with a non-instrumented companion after recovery.
Systolic blood pressure was recorded for one hour before treatment (basal period). Thereafter, the subcutaneous administration of the test compound or its vehicle was performed, under continuous recording of the signal up to 48 hours, analysed and expressed as % change from baseline.
Representative data are presented in Table 13 below, in which “Duration of action” indicates the last time point for which an effect on BP was still observed (n=2 animals/peptide)

| SMILES | Buffer stability pH 4.5 % purity loss [1] | Buffer stability pH 7.4 % purity loss [1] | Emax (% I) [2] | EC50 [2] | EC50 [3] | Systolic blood pressure (Mean) % change from baseline, 8 h ([4]; 8 h, n=2) | Systolic blood pressure (Mean) % change from baseline, 12 h ([4]; 12 h, n=2) | Systolic blood pressure (Mean) % change from baseline, 24 h ([4]; 24 h, n=2) | Duration of action ([4]; last time point with an effect on BP still observed) |
| --- | --- | --- | --- | --- | --- | --- | --- | --- | --- |
| CC[C@H](C)[C@H](NC(=O)[C@H](CCC(N)=O)NC(=O)[C@H](CCCCN)NC(=O)[C@H](CC(N)=O)NC(=O)[C@@H](NC(=O)[C@H](CCC(=O)O)NC(=O)[C@H](C)NC(=O)[C@H](CCC(N)=O)NC(=O)[C@H](CCC(=O)O)NC(=O)[C@H](CCCNC(=N)N)NC(=O)[C@H](CCC(N)=O)NC(=O)[C@H](CCCCN)NC(=O)[C@H](CCCCN)NC(=O)[C@H](CCC(N)=O)NC(=O)[C@H](CCCCN)NC(=O)[C@H](CCC(=O)O)NC(=O)[C@H](CCC(N)=O)NC(=O)[C@H](CCC(=O)O)NC(=O)[C@H](CC(C)C)NC(=O)[C@H](CC(C)C)NC(=O)[C@@H](NC(=O)[C@H](CCCCN)NC(=O)[C@H](CCCCNC(=O)CC[C@H](NC(=O)CCCCCCCCCCCCCCC(=O)O)C(=O)O)NC(=O)[C@H](CC(C)C)NC(=O)[C@H](CCCCN)NC(=O)[C@@H](NC(=O)[C@@H]1CCCN1C(=O)[C@H](NC(=O)[C@H](CC(=O)O)NC(=O)[C@H](CC(C)C)NC(=O)[C@H](CO)NC(=O)[C@H](CC(C)C)NC(=O)[C@@H](N)C(C)C)C(C)C)[C@@H](C)CC)[C@@H](C)CC)[C@@H](C)O)C(=O)N[C@@H](CC(C)C)C(=O)N[C@@H](C)C(=O)N[C@@H](CCC(N)=O)C(=O)N[C@H](C(N)=O)C(C)C [compound 34] (H-VLSLD[dV]PIKLK([γGlu-C16 diacid])KILLEQEKQKKQREQAETNKQILAQV-NH2) | 0% | 4.5% | 0 % I | > 250 nM | 1.61 nM | – | – | – | – |
| CC[C@H](NC(=O)[C@H](CC(N)=O)NC(=O)[C@@H](NC(=O)[C@H](CCC(=O)O)NC(=O)[C@H](C)NC(=O)[C@H](CCC(N)=O)NC(=O)[C@H](CCC(=O)O)NC(=O)[C@H](CCCNC(=N)N)NC(=O)[C@H](CCC(N)=O)NC(=O)[C@H](CCCCN)NC(=O)[C@H](CCCCN)NC(=O)[C@H](CCC(N)=O)NC(=O)[C@H](CCCCN)NC(=O)[C@H](CCC(=O)O)NC(=O)[C@H](CCC(N)=O)NC(=O)[C@H](CCC(=O)O)NC(=O)[C@H](CC(C)C)NC(=O)[C@H](CC(C)C)NC(=O)[C@@H](NC(=O)[C@H](CCCCN)NC(=O)[C@H](CCCCNC(=O)COCCOCCNC(=O)COCCOCCNC(=O)CC[C@H](NC(=O)CCCCCCCCCCCCCCCCC(=O)O)C(=O)O)NC(=O)[C@H](CC(C)C)NC(=O)[C@H](CCCCN)NC(=O)[C@@H](NC(=O)[C@@H]1CCCN1C(=O)[C@H](NC(=O)[C@H](CC(=O)O)NC(=O)[C@H](CC(C)C)NC(=O)[C@H](CO)NC(=O)[C@H](CC(C)C)NC(=O)[C@@H](NC(=O)[C@@H](NC(C)=O)[C@@H](C)CC)C(C)C)C(C)C)[C@@H](C)CC)[C@@H](C)CC)[C@@H](C)O)C(=O)N[C@@H](CCC(N)=O)C(=O)N[C@H](C(=O)N[C@@H](CC(C)C)C(=O)N[C@@H](C)C(=O)N[C@@H](CCC(N)=O)C(=O)N[C@H](C(N)=O)C(C)C)[C@@H](C)CC [compound 104] (Ac-IVLSLD[dV]PIKLK([AEEA-AEEA-γGlu-C18 diacid])KILLEQEKQKKQREQAETN[Abu]QILAQV-NH2) | 0/0 ^ % | 0/0 ^ % | 5 % I | > 250 nM | 0.47 nM | – | – | – | – |
| CC[C@H](C)[C@H](NC(=O)[C@H](CCC(N)=O)NC(=O)[C@H](CCCCN)NC(=O)[C@H](CC(N)=O)NC(=O)[C@@H](NC(=O)[C@H](CCC(=O)O)NC(=O)[C@H](C)NC(=O)[C@H](CCC(N)=O)NC(=O)[C@H](CCC(=O)O)NC(=O)[C@H](CCCNC(=N)N)NC(=O)[C@H](CCC(N)=O)NC(=O)[C@H](CCCCN)NC(=O)[C@H](CCCCN)NC(=O)[C@H](CCC(N)=O)NC(=O)[C@H](CCCCN)NC(=O)[C@H](CCC(=O)O)NC(=O)[C@H](CCC(N)=O)NC(=O)[C@H](CCC(=O)O)NC(=O)[C@H](CC(C)C)NC(=O)[C@H](CC(C)C)NC(=O)[C@@H](NC(=O)[C@H](CCCCN)NC(=O)[C@H](CCCCNC(=O)COCCOCCNC(=O)COCCOCCNC(=O)CC[C@H](NC(=O)CCCCCCCCCCCCCCCCC(=O)O)C(=O)O)NC(=O)[C@H](CC(C)C)NC(=O)[C@H](CCCCN)NC(=O)[C@@H](NC(=O)[C@@H]1CCCN1C(=O)[C@H](NC(=O)[C@H](CC(=O)O)NC(=O)[C@H](CC(C)C)NC(=O)[C@H](CO)NC(=O)[C@H](CC(C)C)NC(=O)[C@@H](NC(C)=O)C(C)C)C(C)C)[C@@H](C)CC)[C@@H](C)CC)[C@@H](C)O)C(=O)N[C@@H](CC(C)C)C(=O)N[C@@H](C)C(=O)N[C@@H](CCC(N)=O)C(=O)N[C@H](C(N)=O)C(C)C [compound 92] (Ac-VLSLD[dV]PIKLK([AEEA-AEEA-γGlu-C18 diacid])KILLEQEKQKKQREQAETNKQILAQV-NH2) | 0% | 16.8% | 5 % I | > 250 nM | 2.3 nM | – | – | – | – |
| CCCCC(=O)N[C@H](C(=O)N[C@@H](CC(C)C)C(=O)N[C@@H](CO)C(=O)N[C@@H](CC(C)C)C(=O)N[C@@H](CC(=O)O)C(=O)N[C@@H](C(=O)N1CCC[C@H]1C(=O)N[C@H](C(=O)N[C@@H](CCCCN)C(=O)N[C@@H](CC(C)C)C(=O)N[C@@H](CCCCNC(=O)CC[C@H](NC(=O)CCCCCCCCCCCCCCCCC(=O)O)C(=O)O)C(=O)N[C@@H](CCCCN)C(=O)N[C@H](C(=O)N[C@@H](CC(C)C)C(=O)N[C@@H](CC(C)C)C(=O)N[C@@H](CCC(=O)O)C(=O)N[C@@H](CCC(N)=O)C(=O)N[C@@H](CCC(=O)O)C(=O)N[C@@H](CCCCN)C(=O)N[C@@H](CCC(N)=O)C(=O)N[C@@H](CCCCN)C(=O)NC(C)(C)C(=O)N[C@@H](CCC(N)=O)C(=O)N[C@@H](CCCNC(=N)N)C(=O)N[C@@H](CCC(=O)O)C(=O)N[C@@H](CCC(N)=O)C(=O)N[C@@H](C)C(=O)N[C@@H](CCC(=O)O)C(=O)N[C@H](C(=O)N[C@@H](CC(N)=O)C(=O)NC(C)(C)C(=O)N[C@@H](CCC(N)=O)C(=O)N[C@H](C(=O)N[C@@H](CC(C)C)C(=O)N[C@@H](C)C(=O)N[C@@H](CCC(N)=O)C(=O)N[C@H](C(N)=O)C(C)C)[C@@H](C)CC)[C@@H](C)O)[C@@H](C)CC)[C@@H](C)CC)C(C)C)C(C)C [compound 194] (Pentanoyl-VLSLD[dV]PIKLK([γGlu-C18 diacid])KILLEQEKQK[Aib]QREQAETN[Aib]QILAQV-NH2) | – | – | 10 % I | > 250 nM | 0.44 nM | −13% | −3% | 18% | 19 h |
